# Test results taken from the supplement of paper PMC11208160.
# Experiment: recombinant UMI read abundance after kanamycin selection (control-corrected) (log10(CPM+1)); higher = more efficient recombination; extreme values may be limits of the assay; sequences stand for … in AGTGCAGAGAAAATCGGCCAGTTTTCTCTGCCTGCAGTCCGCATGCCGTGGGACCCCTTGGGTTCTAACCTGTTGCCTAGATTTATGCAGCGGACTGCCTTTCTCCCAAAGTGATAAACCGG…AGGTTGGTTTCACT; site = the 11-nt donor
# Summary of the method: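 Two replicates each of selected and unselected plating were used in this pooled Escherichia coli screen of donor and donor-binding-loop pairs for the IS621 bridge recombinase. Selection was with IPTG (0.07 mM) and kanamycin. Counts of recombinant UMIs, amplified across the donor–target junction, were converted to CPM, averaged, scaled by control-derived factors and reported as log10(CPM+1).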
# 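Further: IS621 bridge recombinase in Escherichia coli cells against a fixed T5 target plasmid.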
row,Sequence,recombinant UMI read abundance (log10)
1,GTAGACGCATGGACCGGTTTTCCCGGTAATCCGTATTTGCG (site GTAGCCGCTCG),0.0374
2,GTAGACGCATGGACCGGTTTTCCCGGTAATCCGTATTTGCG (site GTAGGCGCTCG),1.39
3,GTAGACGCATGGACCGGTTTTCCCGGTAATCCGTATTTGCG (site GTAGTCGCTCG),0.182
4,GTAGATTCATGGACCGGTTTTCCCGGTAATCCGTATTTGTT (site GAAGATTCTAA),0.559
5,GTAGATTCATGGACCGGTTTTCCCGGTAATCCGTATTTGTT (site GCAGATTCTAA),1.63
6,GTAGATTCATGGACCGGTTTTCCCGGTAATCCGTATTTGTT (site GGAGATTCTAA),0.98
7,GTAGATTCATGGACCGGTTTTCCCGGTAATCCGTATTTGTT (site GTAGATTCTAA),3.02
8,GTAGCTGCATGGACCGGTTTTCCCGGTAATCCGTATTTGTG (site ATAGCTGCTCA),0.436
9,GTAGCTGCATGGACCGGTTTTCCCGGTAATCCGTATTTGTG (site CTAGCTGCTCA),0.54
10,GTAGCTGCATGGACCGGTTTTCCCGGTAATCCGTATTTGTG (site GTAGCTGCTCA),1.06
11,GTAGCTGCATGGACCGGTTTTCCCGGTAATCCGTATTTGTG (site TTAGCTGCTCA),0.0482
12,GTAGGATCATGGACCGGTTTTCCCGGTAATCCGTATTTGAC (site CTAGTATCTGT),0.851
13,GTAGGATCATGGACCGGTTTTCCCGGTAATCCGTATTTGAC (site GTAGGATCTGT),3.19
14,GTAGGCGCATGGACCGGTTTTCCCGGTAATCCGTATTTGAC (site GTAGGCGCTGT),1.9
15,GTAGGCGCATGGACCGGTTTTCCCGGTAATCCGTATTTGCG (site GTAGACGCTCG),2.78
16,GTAGGCGCATGGACCGGTTTTCCCGGTAATCCGTATTTGCG (site GTAGCCGCTCG),0
17,GTAGGCGCATGGACCGGTTTTCCCGGTAATCCGTATTTGCG (site GTAGGCGCTCG),1.47
18,GTAGGCGCATGGACCGGTTTTCCCGGTAATCCGTATTTGCG (site GTAGTCGCTCG),0.407
19,GTAGGGTCATGGACCGGTTTTCCCGGTAATCCGTATTTGTT (site GTAGGGTCTAA),2.38
20,GTAGGTACATGGACCGGTTTTCCCGGTAATCCGTATTTGGC (site GTAGGTACTGA),1.79
21,GTAGGTACATGGACCGGTTTTCCCGGTAATCCGTATTTGGC (site GTAGGTACTGC),2.38
22,GTAGGTACATGGACCGGTTTTCCCGGTAATCCGTATTTGGC (site GTAGGTACTGG),0.159
23,GTAGGTACATGGACCGGTTTTCCCGGTAATCCGTATTTGGC (site GTAGGTACTGT),1.53

row,Sequence,recombinant UMI read abundance (log10)
1,GTAGGTACATGGACCGGTTTTCCCGGTAATCCGTATTTGTC (site GTAGGTACTGA),1.99
2,GTAGGTACATGGACCGGTTTTCCCGGTAATCCGTATTTGTC (site GTAGGTACTGC),0
3,GTAGGTACATGGACCGGTTTTCCCGGTAATCCGTATTTGTC (site GTAGGTACTGG),1.97
4,GTAGGTACATGGACCGGTTTTCCCGGTAATCCGTATTTGTC (site GTAGGTACTGT),1.35
5,GTAGTAGCATGGACCGGTTTTCCCGGTAATCCGTATTTGCG (site GTAGTAGCTCG),2.62
6,GTAGTAGCATGGACCGGTTTTCCCGGTAATCCGTATTTGCG (site GTAGTCGCTCG),0.72
7,GTAGTAGCATGGACCGGTTTTCCCGGTAATCCGTATTTGCG (site GTAGTGGCTCG),1.53
8,GTAGTAGCATGGACCGGTTTTCCCGGTAATCCGTATTTGCG (site GTAGTTGCTCG),1.32
9,GTAGTATCATGGACCGGTTTTCCCGGTAATCCGTATTTGAC (site ATAGTATCTGT),3.09
10,GTAGTATCATGGACCGGTTTTCCCGGTAATCCGTATTTGAC (site CTAGTATCTGT),2.47
11,GTAGTATCATGGACCGGTTTTCCCGGTAATCCGTATTTGAC (site GTAGTATCTGT),3.41
12,GTAGTATCATGGACCGGTTTTCCCGGTAATCCGTATTTGAC (site TTAGTATCTGT),2.29
13,GTAGTATCATGGACCGGTTTTCCCGGTAATCCGTATTTGCC (site GTAGTATCTGG),2.55
14,GTAGTATCATGGACCGGTTTTCCCGGTAATCCGTATTTGGC (site CTAGTATCTGT),0.582
15,GTAGTATCATGGACCGGTTTTCCCGGTAATCCGTATTTGGC (site GTAGTATCTGC),3.51
16,GTAGTCGCATGGACCGGTTTTCCCGGTAATCCGTATTTGCG (site ATAGTCGCTCG),0.405
17,GTAGTCGCATGGACCGGTTTTCCCGGTAATCCGTATTTGCG (site CTAGTCGCTCG),0.145
18,GTAGTCGCATGGACCGGTTTTCCCGGTAATCCGTATTTGCG (site GAAGTCGCTCG),0.0146
19,GTAGTCGCATGGACCGGTTTTCCCGGTAATCCGTATTTGCG (site GCAGTCGCTCG),0.162
20,GTAGTCGCATGGACCGGTTTTCCCGGTAATCCGTATTTGCG (site GGAGTCGCTCG),0.0136
21,GTAGTCGCATGGACCGGTTTTCCCGGTAATCCGTATTTGCG (site GTAATCGCTCG),1.31
22,GTAGTCGCATGGACCGGTTTTCCCGGTAATCCGTATTTGCG (site GTACTCGCTCG),0.0126
23,GTAGTCGCATGGACCGGTTTTCCCGGTAATCCGTATTTGCG (site GTAGACGCTCG),0.714

row,Sequence,recombinant UMI read abundance (log10)
1,GTAGTCGCATGGACCGGTTTTCCCGGTAATCCGTATTTGCG (site GTAGCCGCTCG),0.584
2,GTAGTCGCATGGACCGGTTTTCCCGGTAATCCGTATTTGCG (site GTAGGCGCTCG),0.0201
3,GTAGTCGCATGGACCGGTTTTCCCGGTAATCCGTATTTGCG (site GTAGTAGCTCG),0.489
4,GTAGTCGCATGGACCGGTTTTCCCGGTAATCCGTATTTGCG (site GTAGTCACTCG),1.24
5,GTAGTCGCATGGACCGGTTTTCCCGGTAATCCGTATTTGCG (site GTAGTCCCTCG),0.553
6,GTAGTCGCATGGACCGGTTTTCCCGGTAATCCGTATTTGCG (site GTAGTCGCTAG),1.23
7,GTAGTCGCATGGACCGGTTTTCCCGGTAATCCGTATTTGCG (site GTAGTCGCTCA),0.421
8,GTAGTCGCATGGACCGGTTTTCCCGGTAATCCGTATTTGCG (site GTAGTCGCTCC),0.0196
9,GTAGTCGCATGGACCGGTTTTCCCGGTAATCCGTATTTGCG (site GTAGTCGCTCG),1.61
10,GTAGTCGCATGGACCGGTTTTCCCGGTAATCCGTATTTGCG (site GTAGTCGCTCT),0.471
11,GTAGTCGCATGGACCGGTTTTCCCGGTAATCCGTATTTGCG (site GTAGTCGCTGG),1.34
12,GTAGTCGCATGGACCGGTTTTCCCGGTAATCCGTATTTGCG (site GTAGTCGCTTG),1.95
13,GTAGTCGCATGGACCGGTTTTCCCGGTAATCCGTATTTGCG (site GTAGTCTCTCG),2
14,GTAGTCGCATGGACCGGTTTTCCCGGTAATCCGTATTTGCG (site GTAGTGGCTCG),0.013
15,GTAGTCGCATGGACCGGTTTTCCCGGTAATCCGTATTTGCG (site GTAGTTGCTCG),0.00541
16,GTAGTCGCATGGACCGGTTTTCCCGGTAATCCGTATTTGCG (site GTATTCGCTCG),0.011
17,GTAGTCGCATGGACCGGTTTTCCCGGTAATCCGTATTTGCG (site GTCGTCGCTCG),0.00603
18,GTAGTCGCATGGACCGGTTTTCCCGGTAATCCGTATTTGCG (site GTGGTCGCTCG),0.0189
19,GTAGTCGCATGGACCGGTTTTCCCGGTAATCCGTATTTGCG (site GTTGTCGCTCG),0.285
20,GTAGTCGCATGGACCGGTTTTCCCGGTAATCCGTATTTGCG (site TTAGTCGCTCG),1.26
21,GTAGTGACATGGACCGGTTTTCCCGGTAATCCGTATTTGCC (site GTAGTGACTGG),2.58
22,GTATAGGCATGGACCGGTTTTCCCGGTAATCCGTATTTGTA (site GTATAGGCTTA),2.22
